Consider 1 molecule from PMC11488110 (Theranostics, 2024).

The test system of series [1] is C57BL/6N mice with LPS-induced neuroinflammation. The experiment in a line: LPS-induced neuroinflammation mouse model. It is filed as in vivo.
The subject of series [2] is BV-2 microglial cells. As to the kind of experiment: HO-1 expression and intracellular ROS in BV-2 microglia. It is filed as cell-based, mouse. The method, then: Total proteins were extracted from cells or mouse brain tissues using radioimmunoprecipitation assay (RIPA) buffer (Sigma-Aldrich) containing a protease and phosphatase inhibitor cocktail (Roche Diagnostics). After 30 min of incubation with RIPA buffer on ice, lysates were centrifuged at 15800 g and 4 °C for 20 min and supernatants were collected. Protein concentrations were determined using Pierce® BCA Protein Assay Kit (Thermo Fisher Scientific). Protein samples (10 μg) were separated on 10% SDS-PAGE gels and transferred to polyvinylidene fluoride (PVDF) membranes (Millipore). The membranes were blocked in 5% skim milk (Millipore) in TBST (10 mM Tris-HCl, pH 7.5, 150 mM NaCl, and 0.1% Tween® 20) for 1 h at room temperature and incubated overnight at 4 °C with primary antibodies. […] The western blot bands were analyzed using ImageJ software (NIH) and β-Actin or glyceraldehyde 3-phosphate dehydrogenase (GAPDH) were used as a loading control. […]
Intracellular ROS accumulation was monitored using the cell-permeable fluorescent probe DCFH-DA (Sigma-Aldrich). […] After washing with phosphate-buffered saline (PBS), cells were imaged with an ImageXpress Pico (Molecular Devices) and fluorescence intensity was quantified using the ImageJ software (NIH).

The next series concerns the target T1, hERG channel (Homo sapiens, UniProt Q12809).
T1 construct: purchased Invitrogen PV5365
The experiment in a line: biochemical. The settings on record: fluorescence polarization binding assay. The method, then: An hERG channel binding assay was performed using the Predictor hERG Fluorescence Polarization Assay Kit (PV5365, Invitrogen). […] Fluorescence intensity (excitation at 530 nm, emission at 590 nm) was measured using a multi-mode microplate reader Synergy Neo (Biotek). […]
Ta b l e S2 . CYP inhibition, microsomal stability, and hERG in hibition of 5a .
CYP inhibitiona Microsomal stabilityb
( % of c ont rol ac ti vit y) (% of remaining compound) hERG inhibitionc (IC50, μ M) […]
aCytochrome P450 (CYP450) enzyme activity was measured by incubating CYP450 enzyme isotype-specific substrates and liver microsomes in the presence of the test compound (10 μM) for 15 min. Data are expressed as percent of CYP enzyme activity relative to that of t he v ehicle-treated control. bThe test compound was incubated with microsomes for 30 min and the percentage of the remaining compound was measured via liquid chromatography- tandem mass spectrometry (LC-MS/MS). cHuman Ether-à -go -go -related gene (hERG) channel binding assay was performed using a predictor hERG fluorescence polarization assay (Invitrogen); IC50 values were calculated with non-linear regression fit with four parameters. a- cThe results of these three assays were obtained through the in vitro ADME/Tox study service of KMEDIhub, a contract research organization (CRO). The reported measurements are the mean of […]
Background: In fluorescence polarisation assays a small probe gives low polarisation when free and higher when bound to something large.

In the next series the test system is SH-SY5Y cells. The experiment in a line: BACE1 expression (western blot) in SH-SY5Y cells. The settings on record: 24 h. It is filed as cell-based, human. On the procedure: For the in vitro co-transfection assay, CV-1 monkey kidney cells were cultured in Dulbecco's modified Eagle's medium (DMEM) supplemented with 10% resin-charcoal-stripped fetal bovine serum (FBS), 100 U/mL penicillin, and 100 µg/mL streptomycin. To investigate the anti-inflammatory effects of 5a, BV-2 microglial cells were cultured in RPMI 1640 (Biowest) supplemented with 10% heat-inactivated FBS (Biowest), 2.05 mM L-glutamine (Gibco), and 100 U/mL penicillin/streptomycin (Gibco). Primary mouse astrocytes were isolated from postnatal day 1 C57BL/6N mouse pups. The cerebral cortices collected with the meninges removed were triturated by gentle pipetting and centrifuged. Primary astrocytes were resuspended and cultured in DMEM supplemented with 10% heat-inactivated FBS (Biowest), 10% heat-inactivated horse serum (Gibco), and 100 U/mL penicillin/streptomycin (Gibco). […]
Total proteins were extracted from cells or mouse brain tissues using radioimmunoprecipitation assay (RIPA) buffer (Sigma-Aldrich) containing a protease and phosphatase inhibitor cocktail (Roche Diagnostics). […] Protein concentrations were determined using Pierce® BCA Protein Assay Kit (Thermo Fisher Scientific). […] The western blot bands were analyzed using ImageJ software (NIH) and β-Actin or glyceraldehyde 3-phosphate dehydrogenase (GAPDH) were used as a loading control. […]
(In general: In western blotting, separated proteins are transferred to a membrane and probed.)

Series [3] concerns Salmonella typhimurium TA98. As to the kind of experiment: Ames MPF mutagenicity assay, TA98. It is filed as cell-based. On the procedure:
An Ames microplate format (MPF) 98/100 mutagenesis assay kit (Xenometrix) was used to test mutagenic activity. The TA98 / TA100 Salmonella strain was inoculated into the bacterial culture medium and cultured overnight. The Salmonella test strain was then exposed to six concentrations of the test compound (plus positive and negative controls). Samples were prepared in 96-well plates in sterile DMSO. The cultured bacteria, test compound, and S9 mixture were incubated for 90 min at 37 °C in a shaking incubator. The mixture was then treated with an indicator medium and dispensed into 384-well plates. The plates were incubated at 37 °C for 48 h. The number of wells containing revertant colonies was counted for each dose.
Ta b l e S4 . Tw o -strain Ames mutagenic assess ment of 5a.
Straina Activity in the absence (-) of S9b Activity in the presence (+) of S9b TA 9 8 Negative (-) Negative (-)
TA 1 0 0 Negative (-) Negative (-) aSalmonella typhimurium strains TA98 (hi s D3052 mutation) and TA100 (hisG46 mutation) were used to detect frameshift mutations and base- pair substitution mutations, respectively. bAroclor 1254- induced rat liver S9 fraction for exogenous metabolic activation.

For series [4], the system named is BV-2 microglial cells. As to the kind of experiment: LPS-induced inflammatory responses in BV-2 microglia. It is filed as cell-based, mouse.
The mark [5] stands for this setting: 30 mg/kg p.o. 10 days, LPS 0.3 mg/kg 7 days.
[6] abbreviates: 30 mg/kg/day p.o., LPS 0.3 mg/kg/day i.p.

What is called IC50 is the concentration at which inhibition is half-maximal.

SMILES strings stand for the structures. “Also recorded” adds a separate entry of the source.

T1 sequence (Q12809 whole entry): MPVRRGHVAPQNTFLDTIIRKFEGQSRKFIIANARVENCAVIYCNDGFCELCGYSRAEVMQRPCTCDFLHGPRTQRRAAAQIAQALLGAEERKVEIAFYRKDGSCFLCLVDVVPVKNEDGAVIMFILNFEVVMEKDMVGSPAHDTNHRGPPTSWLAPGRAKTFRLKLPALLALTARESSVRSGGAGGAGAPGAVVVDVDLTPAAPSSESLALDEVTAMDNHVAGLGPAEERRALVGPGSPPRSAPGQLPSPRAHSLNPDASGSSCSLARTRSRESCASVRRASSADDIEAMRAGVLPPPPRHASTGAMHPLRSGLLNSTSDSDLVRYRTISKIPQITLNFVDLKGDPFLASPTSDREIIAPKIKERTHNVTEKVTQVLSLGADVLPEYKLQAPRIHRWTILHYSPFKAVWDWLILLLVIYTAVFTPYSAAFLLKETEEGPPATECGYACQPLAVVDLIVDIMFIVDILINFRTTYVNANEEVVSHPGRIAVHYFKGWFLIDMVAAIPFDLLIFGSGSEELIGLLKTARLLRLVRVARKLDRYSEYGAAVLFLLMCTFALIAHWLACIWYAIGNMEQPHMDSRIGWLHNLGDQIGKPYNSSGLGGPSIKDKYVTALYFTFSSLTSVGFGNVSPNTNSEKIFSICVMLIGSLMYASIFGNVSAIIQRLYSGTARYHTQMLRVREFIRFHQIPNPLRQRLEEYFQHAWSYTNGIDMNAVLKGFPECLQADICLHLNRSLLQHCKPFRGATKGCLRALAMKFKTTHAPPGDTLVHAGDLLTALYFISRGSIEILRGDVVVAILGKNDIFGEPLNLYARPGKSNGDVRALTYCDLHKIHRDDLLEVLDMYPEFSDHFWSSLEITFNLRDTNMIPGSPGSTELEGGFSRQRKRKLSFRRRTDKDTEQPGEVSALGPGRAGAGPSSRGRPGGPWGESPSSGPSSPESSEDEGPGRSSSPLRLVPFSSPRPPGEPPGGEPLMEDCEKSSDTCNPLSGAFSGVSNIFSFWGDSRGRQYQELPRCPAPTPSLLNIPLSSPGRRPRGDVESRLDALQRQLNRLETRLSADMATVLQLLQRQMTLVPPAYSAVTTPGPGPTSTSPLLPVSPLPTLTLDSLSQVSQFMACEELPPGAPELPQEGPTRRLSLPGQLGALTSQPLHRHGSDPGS

Consider `Cc1cc(SCc2[se]c(-c3ccc(C(F)(F)F)cc3)nc2C)ccc1OCC(=O)O` [Compound 5a, {2-Methyl-4-[4-methyl-2-(4-trifluoromethyl-phenyl)-selenazol-5-yl-methylsulfanyl]-phenoxy}-acetic acid], for which, in series [1] (setting [5]), the “CD86 expression in IBA1-positive microglia” value is on record as “significantly reduced the expression”; the “GFAP and IBA1 immunoreactivity, hippocampus and cortex” value is given as “inhibited”; the “Plasma TNF-α and IL-6” value is reported as “prevented the LPS-induced increases”; the “Spleen size and weight” value was “reduced the size and weight of spleens”. In addition, in series [1] (setting [6]), the “Open-field motor activity (traveled distance, immobility time)” value is listed as “improved motor activity”; the “Open-field time spent in the center” value was “spent more time in the center”; the “Passive avoidance step-through latency” value is listed as “significantly prevented this decrease”; the “Y-maze number of arm entries” value is listed as “increased the number of arm entries”. The Y-maze spontaneous alternation entry in series [1] (setting [6]) is on record as “higher percentage of spontaneous alternations”. For the same molecule, the “Intracellular ROS production (DCFH-DA)” value in the series on BV-2 microglial cells [2] (BV-2, 5 μM 24 h, H2O2 200 μM 20 min) was “suppressed ROS production”. Further, in the series with BV-2 microglial cells [2] (BV-2, 48 h), the HO-1 expression result is “increased the expression of HO-1”. Moreover, the “hERG inhibition (IC50)” value on hERG channel is reported as “low inhibitory effects”. Further, at hERG channel (read-out: hERG inhibition (IC50)), the IC50 is 9 µM. The “BACE1 expression in SH-SY5Y cells” value in the series with SH-SY5Y cells is recorded as “dose-dependently reduced the expression of BACE1”. Further, the “Ames mutagenic activity in the presence (+) of S9” value in series [3] (TA98, with rat liver S9) was “Negative (-); also recorded: lacks mutagenicity”. Moreover, the “Ames mutagenic activity in the absence (-) of S9” value in series [3] (TA98, without S9) is “Negative (-); also recorded: lacks mutagenicity”. In addition, in the series on BV-2 microglial cells [4] (BV-2, LPS 0.2 μg/mL), the “LPS-induced mRNA and protein levels of iNOS, TNF-α and IL-6” value is “reduced the LPS-induced increases”. Also, the “LPS-induced NO production (nitrite)” value with BV-2 microglial cells [4] (pretreatment 3 h, LPS 0.2 μg/mL 24 h) is recorded as “suppressed”. Also, the “LPS-induced phosphorylation of NF-κB p65” value in the series on BV-2 microglial cells [4] (pretreatment 6 h, LPS 1 h) was “prevented the increase”.
